Measurements reported in US20220257552A1, “METHODS OF PRESCREENING AND TREATING BREAST CANCERS WITH SELECTIVE ANDROGEN RECEPTOR MODULATORS” (priority 2021, published 2022).

Legend:
MR = biological target: T1, MR (Rattus norvegicus, UniProt P22199); experiment: MR transactivation in HEK-293 cells; type: cell-based
T1 construct: expressed in transfected cells
T1 sequence (P22199 1-981): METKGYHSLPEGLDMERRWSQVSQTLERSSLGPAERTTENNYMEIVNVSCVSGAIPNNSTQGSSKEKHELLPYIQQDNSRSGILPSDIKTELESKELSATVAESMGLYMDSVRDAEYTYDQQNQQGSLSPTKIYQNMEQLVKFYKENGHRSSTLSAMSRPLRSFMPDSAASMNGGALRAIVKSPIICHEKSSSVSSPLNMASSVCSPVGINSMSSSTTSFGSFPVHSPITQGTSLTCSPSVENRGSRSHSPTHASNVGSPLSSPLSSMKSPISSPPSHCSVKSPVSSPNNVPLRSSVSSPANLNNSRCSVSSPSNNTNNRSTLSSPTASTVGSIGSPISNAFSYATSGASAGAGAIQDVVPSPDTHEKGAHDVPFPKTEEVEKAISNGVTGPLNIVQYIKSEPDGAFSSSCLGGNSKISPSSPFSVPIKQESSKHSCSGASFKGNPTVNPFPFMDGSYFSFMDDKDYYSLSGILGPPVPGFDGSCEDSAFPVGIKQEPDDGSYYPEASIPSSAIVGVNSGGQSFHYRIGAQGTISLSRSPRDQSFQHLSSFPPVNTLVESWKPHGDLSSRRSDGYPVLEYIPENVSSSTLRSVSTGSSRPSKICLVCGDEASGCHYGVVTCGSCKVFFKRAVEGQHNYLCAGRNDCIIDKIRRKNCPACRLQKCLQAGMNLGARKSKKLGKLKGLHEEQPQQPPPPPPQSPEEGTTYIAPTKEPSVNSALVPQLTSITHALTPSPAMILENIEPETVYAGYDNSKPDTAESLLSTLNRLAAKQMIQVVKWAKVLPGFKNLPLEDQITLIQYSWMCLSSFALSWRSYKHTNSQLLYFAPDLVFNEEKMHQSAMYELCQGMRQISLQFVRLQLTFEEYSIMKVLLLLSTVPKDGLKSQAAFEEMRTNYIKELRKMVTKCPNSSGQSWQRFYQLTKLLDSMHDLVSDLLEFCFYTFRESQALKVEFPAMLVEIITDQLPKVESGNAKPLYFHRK
Procedure: Rat GR, MR, PR, ER-α and ER-β were individually cloned into a pCR3.1 vector backbone. Sequencing was performed to verify the absence of any mutations. HEK-293 cells were plated at 90,000 cells per well of a 24 well plate in Dulbecco's Minimal Essential Media supplemented with 5% charcoal-stripped FBS. […] Luciferase assays were performed 48 h after transfection. Transcriptional activation values are represented as firefly luciferase normalized to renilla luciferase.

[1] = system: HCC-38 triple negative breast cancer cells; experiment: SRB cell viability, HCC-38 cells infected with AR adenovirus; type: cell-based; conditions: 3 days
Procedure: The SRB assay was used to determine cell number during cytotoxocity experiments. The following protocol was used: • 1. Cells were detached with 0.25% trypsin. • 2. Experimental cultures were cultured in 96-well microtiter plates (200 μL growth medium per well; 1,000-200,000 cells per well). • 3. Cultures were fixed with 50 μL 50% TCA (4° C.). (see cell fixation protocol for details). • 4. Fixed cells were stained with 50 μL 0.4% (wt/vol) SRB in 1% acetic acid for 10 minutes. • 5. SRB was removed and the cultures were quickly* rinsed 5 times with 1% acetic acid to remove unbound dye.** • 6. Cultures were air-dried overnight until there was no visible moisture. • 7. The cellular protein-bound SRB was dissolved with 200 μL unbuffered Tris base (10 mM, pH 10.5) for 30 minutes on a rocking platform shaker. • 8. Absorbance was read at 540 nm. * quickly performing rinsing process was to prevent desorption of protein-bound SRB ** completely removed residual wash solution by sharply flicking plates over sink.
The following protocol was used for fixing cells: • a. 50 μL of 50% TCA (4° C.) was gently layered on the top of growth medium in each well to make a final TCA concentration of 10%. • b. Cultures were incubated at 4° C. for 1 hour. • c. Cultures were washed 5 times with tap water to remove TCA, growth medium, low-molecular-weight metabolites, and serum protein. • d. […]

HCI-7 PDX = experiment: HCI-7 (HCI-007) patient-derived xenograft in NSG mice; type: in vivo
Procedure: HCI-007 tumor pieces (1 mm^3) were implanted surgically (one per mouse) under the skin on the flanks of NSG mice. Simultaneously, 17β-estradiol pellet (Innovative Research of America) was implanted surgically under the skin of each mouse. Tumors were allowed to grow and reach approximately 100 mm^3 volume (1*W*W*0.526). […] Tumor volume was measured weekly and represented as % change in tumor volume (FIG. 32). Mice were sacrificed and tumors stored for further analysis.
All animal protocols were approved by The University of Tennessee Health Science Center (UTHSC) Institutional Animal Care and Use Research Committee. Xenograft experiments were performed as previously published (Narayanan et al. (2014) PLoS One 9, e103202). Briefly, 3 million MCF-7 cells were suspended in 0.05 ml MEM+10% FBS and 0.05 ml Matrigel/nude mouse and were injected subcutaneously. Once the tumor size reached 100-200 mm^3, the animals were randomized and treated orally with the indicated drugs formulated in DMSO:PEG-300 (15:85). HCI-7, HCI-9, and HCI-13 PDXs were gifts kindly donated by Dr. Alana Welm (Huntsman Cancer Institute, Salt Lake City, Utah). HCI PDX tumor fragments (1 mm^3) were surgically implanted under the mammary fat pad in female NOD SCID Gamma (NSG) mice. Tumor volume was measured twice weekly for MCF-7 xenograft and once or twice weekly for HCI PDXs. At the end of the study, animals were sacrificed and tumors were excised, weighed, and stored for various analyses.
From the several PDXs available, three AR-positive PDXs were identified, based on gene expression profile. […] The enzalutamide dose was selected based on previous published experiments (Park et al. (2016) Cancer Invest 34, 517-520; Pollock et al. (2016) Nat Chem Biol 12, 795-801) as well as from internal experiments conducted in prostate cancer xenografts and in Hershberger studies.

Row | Compound | MR-mediated transactivation, agonist mode (MR; all tested concentrations) | aldosterone-induced MR-mediated transactivation, antagonist mode (MR; co-incubation) | cell growth [1] | tumor growth (HCI-7 PDX; 10 mg/kg Formula IX, 30 mg/kg enzalutamide, orally) | tumor weights at end of study (HCI-7 PDX; 10 mg/kg orally) | tumor growth (% change in tumor volume) (HCI-7 PDX; Formula IX 10 mg/kg, enzalutamide 20 mg/kg, orally, vs vehicle)
1 | C[C@](O)(COc1ccc(C#N)cc1)C(=O)Nc1ccc(C#N)c(Cl)c1 [Formula VIII, (S)—N-(3-chloro-4-cyanophenyl)-3-(4-cyanophenoxy)-2-hydroxy-2-methylpropanamide] | did not induce | failed to alter |  |  |  | 
2 | C[C@](O)(COc1ccc(C#N)cc1)C(=O)Nc1ccc(C#N)c(C(F)(F)F)c1 [Formula IX, (S)—N-(4-Cyano-3-(trifluoromethyl)phenyl)-3-(4-cyanophenoxy)-2-hydroxy-2-methylpropanamide] |  |  | inhibited | inhibited significantly | significantly smaller | grew slowly
